Data: patent publication US4774248A, “Methods of treating depression and depressive states using 5-phenyl-1,4,5,6-tetrahydropyrimidine derivatives” (priority 1985, dated 1988)
“Also recorded” adds a separate entry of the source.

Key:
mice [1] = experiment: Motility reduced by hypoxic aggression (acute hypobaric anoxia); assay type: in vivo; settings: i.p.
Method: (§1) In these tests, solutions of the said products in distilled water were administered intraperitoneally in a volume of 20 ml/kg to male mice and in a volume of 5 ml/kg to male rats.

[2] = system: hypothermia induced by apomorphine; experiment: Interaction with apomorphine by gastric administration; assay type: in vivo; settings: Mus musculus, male mice, apomorphine 16 mg/kg s.c., read-out: dose as from which the hypothermia induced by apomorphine is opposed
Method: Each test product is administered gastrically to male mice, in a volume of 20 ml/kg, 0.50 h before the subcutaneous injection of 16 mg/kg of apomorphine.

[3] = system: central nervous system (CNS); experiment: Neuropsychopharmacological profile (conclusions of the tests); assay type: in vivo, mice and rats
Method: as §1, with “The results of toxicological and neuropsychopharmacological tests which were carried out with the products according to the invention have been summarized below. In” for “In”

mice [4] = experiment: Asphyxiant anoxia caused by gallamine triiodoethylate; assay type: in vivo; settings: i.p., gallamine triiodoethylate 32 mg/kg
Method: as §1, with “The results of toxicological and neuropsychopharmacological tests which were carried out with the products according to the invention have been summarized below. In” for “In”
Groups of 10 mice receive CRL 41 378 30 minutes before the intraperitoneal administration of 32 mg/kg of gallamine triiodoethylate (reference curarizing agent).

mice [5] = experiment: Traction; assay type: in vivo; settings: i.p.
Method: as §1, with “The results of toxicological and neuropsychopharmacological tests which were carried out with the products according to the invention have been summarized below. In” for “In”
(§2) The test is performed on groups of 10 mice 30 minutes after the administration of CRL 41 378.

anesthetized dogs [6] = experiment: Cardiovascular study in anesthetized dogs; assay type: in vivo
Method: Groups of 2 adult dogs (each weighing 10 to 18 kg), anesthetized with nembutal, receive each test product (i) by intraduodenal administration at successive doses of 0.1 mg/kg, 0.5 mg/kg, 1 mg/kg, 2.5 mg/kg, 5 mg/kb, 10 mg/kg and 20 mg/kg, and then (ii) if appropriate, by intravenous administration at a dose of 10 mg/kg. The effects of 10 μg/kg of isoprenaline and/or 2 μg/kg of norepinephrine after the intraduodenal administration of a cumulative dose of 39.1 mg/kg are also assessed.
The following are measured: the total arterial blood pressure, the diastolic arterial blood pressure, the heart rate, the blood flows through the femoral and cerebral arteries and saphenous veins, the rectal temperature, the skin temperature and the pressure of the gases (essentially O2) dissolved in the arterial blood.

mice [7] = experiment: Overall behavior and reactivities in mice; assay type: in vivo; settings: i.p.
Procedure, shortened: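 Male mice (20 ml/kg) and male rats (5 ml/kg) dosed intraperitoneally with compound in distilled water.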

[8] = system: hypothermia, righting behavior and stereotypies induced by apomorphine; experiment: Interaction with apomorphine in mice; assay type: in vivo
Procedure, shortened: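 Male mice, groups of 6, given test compound intraperitoneally in distilled water (20 ml/kg) 30 min before subcutaneous apomorphine at 1 or 16 mg/kg. Hypothermia, righting behaviour and stereotypies scored.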

[9] = system: stereotypies induced by apomorphine; experiment: Interaction with apomorphine in rats; assay type: in vivo; settings: i.p., apomorphine 0.5 mg/kg s.c., hydrochloride
Method: as §1, with “The results of toxicological and neuropsychopharmacological tests which were carried out with the products according to the invention have been summarized below. In” for “In”
CRL 41 378 is administered to groups of 12 rats 0.5 h before the subcutaneous injection of 0.5 mg/kg of apomorphine.

mice [10] = experiment: Four plate test; assay type: in vivo; settings: i.p.
Method: as §1, with “The results of toxicological and neuropsychopharmacological tests which were carried out with the products according to the invention have been summarized below. In” for “In”
as §2

[11] = system: hypothermia and ptosis induced by reserpine; experiment: Interaction with reserpine; assay type: in vivo; settings: mice, i.p.
Procedure, shortened: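 Reserpine 2.5 mg/kg i.p. given to male mice in groups of 12; test compound dissolved in distilled water and given i.p. (20 ml/kg) four hours later.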

mice [12] = experiment: Intergroup aggressiveness; assay type: in vivo
Procedure, shortened: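 Male mice housed 3 weeks per group in cage halves split by an opaque partition; groups of 3 given CRL 41 378 i.p. in distilled water.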

male mice = experiment: Acute toxicity, intraperitoneal (LD0, LD30, LD60, LD100); assay type: in vivo
Method: as §1, with “The results of toxicological and neuropsychopharmacological tests which were carried out with the products according to the invention have been summarized below. In” for “In”

[13] = system: trembling and head twitches induced by 5-hydroxytryptophan (5-HTP); experiment: Interaction with 5-hydroxytryptophan in association with an MAOI (nialamide); assay type: in vivo, male mice
Method: The purpose of the procedure used is to investigate the activity of each product according to the invention as regards the trembling induced by 5-hydroxytryptophan (5-HTP) in association with an MAOI (in this case nialamide).
Each test product, in solution in distilled water, is administered intraperitoneally in a volume of 20 ml/kg to male mice.
Groups of 10 mice receive nialamide (20 mg/kg, administered gastrically) at time T-18 h, each test product at time T-0.5 h and then (±)-5-HTP (20 mg/kg, administered intraperitoneally) at time T. Immediately after the injection of the (±)-5-HTP, the mice are individually placed in transparent plastic boxes. The generalized trembling, the partial trembling and the head twitches are noted on a yes/no basis for 2 h.

mice [14] = experiment: Motility reduced by habituation to the enclosure; assay type: in vivo; settings: i.p.
Method: as §1, with “The results of toxicological and neuropsychopharmacological tests which were carried out with the products according to the invention have been summarized below. In” for “In”
After they have stayed in the actimeters for 18 hours, the mice (6 per dose, 12 control animals) receive CRL 41 378. They are immediately returned to their respective enclosures and, half an hour later, their motility is recorded for 30 minutes.

anesthetized dogs [15] = experiment: Cardiovascular study in anesthetized dogs; assay type: in vivo; settings: route not specified
[16] = reserpine 2.5 mg/kg, hydrochloride
[17] = i.p., nialamide + (±)-5-HTP, male mice

Structure (SMILES): CC(=O)N1C=NCC(c2ccccc2)C1.Cl (stereo not shown) [CRL 41 378, 1-acetyl-5-phenyl-1,4,5,6-tetrahydropyrimidine hydrochloride]
- lethal effects of hypobaric anoxia (mice [1]): At a dose of 64 mg/kg, CRL 41 378 aggravates the effects of hypobaric anoxia and causes the death of all the animals treated
- motor recovery after acute hypobaric hypoxia (mice [1]): at doses of 1 mg/kg, 4 mg/kg and 16 mg/kg, CRL 41 378 does not cause a modification of the motor recovery
- minimal effective dose [2]: ≥ 0.5 mg/kg
- lethal effects of the various convulsants studied ([3]; electric shock, hypobaric hypoxia, asphyxiant anoxia): aggravates the lethal effects of the various convulsants studied (electric shock, hypobaric hypoxia, asphyxiant anoxia)
- antidepressant effects ([3]; i.p.): antidepressant effects appearing as from the lowest doses
- peripheral anticholinergic activity ([3]; i.p.): absence of peripheral anticholinergic activity
- stimulant effects ([3]; i.p.): absence of stimulant effects on the CNS
- peripheral α-adrenergic stimulant effects ([3]; i.p., hydrochloride): peripheral α-adrenergic stimulant effects appearing at high doses; also recorded: an α1 stimulation component represented by salivation and mydriasis (in mice and rats) and piloerection (in rats); also recorded: moderate hyperthermia in mice; also recorded: peripheral vasodilation (tail, paws and snout) in mice and rats
- sedative effects ([3]; i.p., hydrochloride): sedative effects appearing at high doses; also recorded: sedation in mice
- overall neuropsychopharmacological profile ([3]; summary, hydrochloride): an antidepressant exhibiting sedative effects at high doses; also recorded: resembles β-adrenergic stimulants
- time taken for convulsions and death / lethal effects of gallamine triiodoethylate (mice [4]): at the highest dose used (64 mg/kg), CRL 41 378 causes a moderate decrease in the time taken for convulsions and death to occur
- motor incoordination / incapacity (mice [5]): does not cause motor incoordination
- rectal temperature (anesthetized dogs [6]): increases the rectal temperature
- skin temperature (anesthetized dogs [6]): does not cause a distinct modification of the skin temperature
- arterial blood pressure (anesthetized dogs [6]; intraduodenal): no effect on the arterial blood pressure by intraduodenal administration
- arterial blood pressure (anesthetized dogs [6]; intravenous): hypotensive by intravenous administration
- effects of isoprenaline (anesthetized dogs [6]; isoprenaline 10 μg/kg): decreases the effects of isoprenaline on the heart rate
- hypertension induced by norepinephrine (anesthetized dogs [6]; norepinephrine 2 μg/kg): decreases the hypertension induced by norepinephrine
- overall behavior and reactivities (mice [7]; 1 mg/kg): no distinct modification of the behavior and reactivities compared with the control animals
- overall behavior and reactivities (mice [7]; 4 mg/kg): moderate mydriasis for 3 h, the maximum intensity being reached 1 h after administration
- overall behavior and reactivities (mice [7]; 16 mg/kg, hydrochloride): moderate salivation 1 h after administration; also recorded: moderate hypothermia; also recorded: moderate mydriasis 1 h after administration
- overall behavior and reactivities (mice [7]; 64 mg/kg, hydrochloride): sedation for 3 h; also recorded: a decrease in the breathing rate appearing between T+0.5 h and T+1 h after administration; also recorded: moderate hypothermia; also recorded: an increase in the reactivity to touch and vasodilation of the paws for 0.5 h; also recorded: salivation appearing between T+1 h and T+2 h after administration; also recorded: mydriasis for 3 h
- minimal effective dose ([8]; Mus musculus, ip, read-out: dose as from which the hypothermia induced by apomorphine is antagonized): ≥ 0.5 mg/kg
- action on righting behavior and stereotypies due to apomorphine ([8]; i.p.): practically no modification of the righting behavior and stereotypies due to apomorphine
- action on hypothermia induced by apomorphine ([8]; i.p., hydrochloride): antagonizes the hypothermia induced by apomorphine; also recorded: antagonism of the hypothermia induced by apomorphine, reserpine and oxotremorine in mice
- action on stereotypies induced by apomorphine [9]: at the two highest doses used (8 and 32 mg/kg), CRL 41 378 seems to cause a moderate decrease in the stereotypies induced by apomorphine; also recorded: moderate antagonism of the stereotyped movements induced by apomorphine in rats
- number of punished passes (mice [10]): does not modify the number of punished passes
- minimal effective dose ([11]; Mus musculus, ip, 24 h after administration, read-out: dose as from which the ptosis induced by reserpine is moderately decreased): ≥ 0.5 mg/kg
- action on hypothermia induced by reserpine [11, 16]: at doses of 0.5 mg/kg to 4 mg/kg, CRL 41 378 antagonizes the hypothermia induced by reserpine; also recorded: this effect tends to decrease to nothing at a dose of 16 mg/kg; also recorded: the highest dose used (64 mg/kg) being inactive towards the hypothermia induced by reserpine; also recorded: antagonism of the hypothermia induced by apomorphine, reserpine and oxotremorine in mice
- action on ptosis induced by reserpine [11, 16]: moderate decrease in the ptosis induced by reserpine 24 h after administration; also recorded: absence of distinct antagonism of the ptosis induced by reserpine
- minimal effective dose (mice [12]; Mus musculus, ip, read-out: dose as from which the intergroup aggressiveness is decreased): ≥ 0.5 mg/kg
- intergroup aggressiveness (number of fights) (mice [12]; mice, i.p., hydrochloride): decreases the intergroup aggressiveness as from a dose of 0.5 mg/kg but especially at doses of 2 mg/kg, 4 mg/kg and 16 mg/kg; also recorded: a decrease in the intergroup aggressiveness of mice (at doses which do not decrease the spontaneous motor activity)
- toxic signs in the animals treated (male mice; 256 mg/kg i.p.): all the animals treated exhibit dyspnea, substantial salivation and convulsions 10 minutes after administration
- LD0 (maximum non-lethal dose) (male mice; intraperitoneal): greater than 256 mg/kg
- analogy with β-adrenergic stimulants in the 5-HTP procedure ([13]; 5-HTP + MAOI): more closely resembles fenoterol
- intensity of potentiation of 5-HTP effects ([13]; higher doses, 5-HTP + MAOI, male mice): the potentiation being very intense as from a dose of 16 mg/kg
- head twitches [13, 17]: moderately potentiates the head twitches
- partial trembling [13, 17]: distinctly potentiates the partial trembling
- resumption in the motor activity of mice accustomed to their enclosure (mice [14]): does not cause a resumption in the motor activity of mice accustomed to their enclosure
- blood flows through the femoral and vertebral arteries (anesthetized dogs [15]): decreases the blood flows through the femoral and vertebral arteries
